The first assay concerns the target T1, BID (Mus musculus, UniProt P70444).
T1 construct: poly-His (N); made in house; host or cells: E. coli BL21
T1 sequence (P70444 1-195): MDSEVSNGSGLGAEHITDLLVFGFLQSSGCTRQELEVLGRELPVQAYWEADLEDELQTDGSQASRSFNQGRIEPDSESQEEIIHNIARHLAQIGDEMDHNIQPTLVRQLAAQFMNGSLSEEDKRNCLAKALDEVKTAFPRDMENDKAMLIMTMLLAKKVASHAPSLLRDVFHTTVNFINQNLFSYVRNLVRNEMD
The assay is described as follows: NMR binding to BID (HSQC/TROSY chemical shifts). The note with it: NMR. As to the method: Recombinant full length mouse BID was produced from a pET-19b (Novagen) plasmid construct containing the entire nucleotide sequence for BID fused to an N-terminal poly-His tag. Unlabeled BID was expressed in E. coli BL21 in LB media at 37° C., with an induction period of 3-4 hours with 1 mM IPTG. ^15N-labeled BID was similarly produced, with growth occurring in M9 media supplemented with 0.5 g/L ^15NH4Cl. ε-^13C-Met labeled BID was produced in M9 media supplemented with 50 mg/L of ε-^13C-Met at time of induction with IPTG. Following cell lysis, soluble BID was purified over a Hi-Trap chelating column (Amersham, Pharmacia), followed by ion-exchange purification with a MonoQ (Amersham, Pharmacia) column. Final BID samples were dialyzed into a buffer appropriate for the subsequent experiments. tBID was produced by cleavage of purified BID with caspase-8, as known in the art.
For all NMR experiments, BID was exchanged into 50 mM phosphate buffer at pH 7.5 and measurements were performed at 30° C. 2D [^15N,^1H]-TROSY spectra for BID were measured with 0.5 mM samples of ^15N-labeled BID. 2D [^13C,^1H]-HSQC spectra were measured with 0.2 mM samples of ε-^13C-Met labeled BID. 2D [^1H,^1H]-NOESY spectra were acquired with small molecules at a concentration of 0.9 mM in the presence of 10 μM BID. T1ρ competition experiments (200 msec spin-lock duration) were performed on either 100 μM BI-2A7 or a mixture of 100 μM BI-2A7 and 10 μM BI-6C9, in the presence and absence of 10 μM BID. All experiments were performed with either a 500 MHz or 600 MHz Bruker Avance spectrometer, both equipped with TXI probes. Typical parameters for the 2D [^15N,^1H]-TROSY spectra included ^1H and ^15N π/2 pulse lengths of 11 μsec and 40 μsec, respectively; ^1H and ^15N sweep widths of 12 ppm and 32 ppm, respectively; 16 scans and 256 indirect acquisition points and a recycle delay of 1 sec. For the 2D [^13C,^1H]-HSQC typical parameters included ^1H and ^13C π/2 pulse lengths of 10 μsec and 13 μsec, respectively; ^1H and ^13C sweep widths of 12 ppm and 5 ppm, respectively; 128 scans and 80 indirect acquisition points and a recycle delay of 1 sec. […]
To examine the binding affinity of some compounds of the invention to BID, 2D [^13C,^1H]-HSQC spectra in presence of ^13C methionine-labeled protein were measured, as at least one methionine is present in the hydrophobic groove of BID (FIG. 4B). […]
Monitoring the variation of cross-peak intensity upon addition of increasing amounts of compound II, allowed to estimate its dissociation constant KD. The arrow on FIG. 5C indicates the peak that was monitored to determine the Kd for compound II. […]
On to `Nc1ccc(Sc2ccc(N)cc2)cc1` [XII], for which the “binding to BID” value was “weak binder”.

For a further assay, the target named is T2, tBID (Mus musculus, UniProt P70444).
T2 construct: tBID was produced by cleavage of purified BID with caspase-8, as known in the art; made in house; host or cells: E. coli BL21 (BID), then cleaved in vitro with caspase-8
T2 sequence (P70444 60-195 limits assumed): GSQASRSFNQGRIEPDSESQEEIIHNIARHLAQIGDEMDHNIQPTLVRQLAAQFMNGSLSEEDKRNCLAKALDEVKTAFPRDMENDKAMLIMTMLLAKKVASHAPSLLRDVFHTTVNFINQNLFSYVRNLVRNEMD
T2 sequence (P70444 1-59 partner limits assumed): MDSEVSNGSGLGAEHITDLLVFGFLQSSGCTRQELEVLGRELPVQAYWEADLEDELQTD
The assay is described as follows: tBID-induced Smac release from isolated mitochondria. The assay is classed as biochemical. Particulars: 50 μM compound; isolated mitochondria. On the procedure: 100 ng of tBID (cleaved by caspase 8) was pre-incubated with various concentrations of compounds for 15 minutes at 30° C. in HM buffer (10 mM Hepes, pH 7.4, 250 mM Mannitol, 10 mM KCl, 1.5 mM MgCl, 1 mM DTT, 1 mM EGTA), then 50 μg of isolated mitochondria from HCT116 cells were added to a final volume of 50 μl in HM buffer. After 1 hour incubation at 30° C., the samples were centrifuged at 10,000×g for 5 minutes at 4° C. and the supernatant was analyzed by SDS-PAGE/immunoblotting using anti-SMAC antibody.
Compounds II-IX were tested in vitro for their ability to inhibit BID-mediated release of Smac using mitochondria isolated from HeLa cells (FIG. 6A). The first lane represents mitochondria incubated without tBID. All others received 100 ng tBID without or with compounds. Each compound was tested at a concentration of 50 μM. […] To preliminarily investigate the mechanism by which compound II reduces Smac-release from isolated mitochondria, the tBID protein was treated with different concentrations of BI-6C9, after which it was incubated with mitochondria, followed by analysis of the bound and unbound fractions by immunoblotting using BID antibody. The concentration of mitochondria-bound tBID diminished in response to increasing concentrations of compound II.
About 50 ng of tBID cleaved by […] was pre-incubated for about 15 minutes at about 30° C. with various concentrations of compounds I, II, and X. Then, about 50 μg of isolated mitochondria from Hela cells were added to the reaction system. After about 1 hour of incubation at about 30° C., the samples were centrifuged at 10,000×g for about 5 minutes at about 4° C., and the supernatant was analyzed by SDS-PAGE/immunoblotting using Smac antibody. The results of the analysis are presented on FIG. 8. As shown by FIG. 9, compound I is a strong binder for BID.
Some results of comparative studies of compounds I and II are shown on FIG. 10. […] The first lane represents mitochondria incubated without tBID. All others received 50 ng tBid without or with bi-dentate compound.
Consider `Nc1ccc(Sc2ccc(N)cc2)cc1` [XII], for which testing at 50 µM gave an inhibition of 22%. On the same count and under the same terms, the same measure for `COc1ccc(S(=O)(=O)NCCCC(=O)Nc2ccc(Sc3ccc([N+](=O)[O-])cc3)cc2)cc1` [Compound III, 4-(4-methoxy-benzenesulfonylamino)-N-[4-(4-nitro-phenylsulfanyl)-phenyl]-butyramide]: 24%. In turn, `NCCCC(=O)Nc1ccc(Sc2ccc([N+](=O)[O-])cc2)cc1` [Compound VII, 4-amino-N-[4-(4-nitro-phenylsulfanyl)-phenyl]-butyramide] displayed an inhibition at 50 µM of 66%. On the same count and under the same terms, to `NCCCCCC(=O)Nc1ccc(Sc2ccc([N+](=O)[O-])cc2)cc1` [Compound IX, 6-amino-hexanoic acid [4-(4-nitro-phenylsulfanyl)-phenyl]-amide] belongs 60%; to `CNS(=O)(=O)c1ccc(C)cc1` [X], 0%; to `CC(C)(C)OC(=O)NCCCCCC(=O)Nc1ccc(Sc2ccc([N+](=O)[O-])cc2)cc1` [Compound VIII, {5-[4-(4-nitro-phenylsulfanyl)-phenylcarbamoyl]-pentyl}-carbamic acid tert-butyl ester], 0%.

As for `COc1ccc(S(=O)(=O)NCCCCCC(=O)Nc2ccc(Sc3ccc([N+](=O)[O-])cc3)cc2)cc1` [Compound V, 6-(4-methoxy-benzenesulfonylamino)-hexanoic acid [4-(4-nitro-phenylsulfanyl)-phenyl]-amide], 50 µM produced 16% inhibition. The same measure, in the same setting: the same measure for `CC(C)(C)OC(=O)NCCCC(=O)Nc1ccc(Sc2ccc([N+](=O)[O-])cc2)cc1` [Compound VI, {3-[4-(4-nitro-phenylsulfanyl)-phenylcarbamoyl]-propyl}-carbamic acid tert-butyl ester]: 14%.
